Laboratory results from article PMC11785708, “Design and synthesis of new quinazolinone derivatives: investigation of antimicrobial and biofilm inhibition effects” (Molecular Diversity, 2024).
Values after ≈ are worked out from the molar mass of the structure shown.

Tests used:
[1] = test system: C. albicans ATCC 10231; experiment: Agar well diffusion, C. albicans; assay type: cell-based; settings: Candida albicans, ATCC10231; 100 μl of test compound 20 mg/ml in DMF; ciprofloxacin and fluconazole 30 μg/ml; 24 h; mean ± SD; read-out: diameters of inhibition zone, C. albicans ATCC 10231
Description: (§1) The antimicrobial activity was tested against Gram positive bacteria: Bacillus cereus (B. cereus ATCC 6629), Bacillus subtilis (B. subtilis ATCC 6633), Staphylococcus aureus (S. aureus ATCC 6538), Gram negative bacteria: Klebsiella pneumoniae (K. pneumoniae ATCC 13883), Pseudomonas aeruginosa (P. aeruginosa ATCC 27953) and Candida albicans (C. albicans ATCC 10231). Glycerol stocks were thawed upon need and propagated into nutrient broth at 37 °C. The antibacterial activity of the compounds 9-32 was carried out in vitro using the agar well diffusion method, originally reported by […] and Bauer and coworkers and described by the National Committee for Clinical Laboratory Standards (NCCLS). Bacterial strains, adjusted at […] (equivalent to 0.5 McFarland), were used to inoculate nutrient agar plates. 9-mm diameter wells were punched into the solidified nutrient agar plates using sterile cork borer and 100 μl samples of the test compounds, dissolved in dimethyl formamide (DMF) at 20 mg/ml concentrations, were added and allowed to diffuse at 4 °C for 2 h. Subsequently, the plates were incubated overnight in an upright position at 37 °C. DMF was used as a negative control while ciprofloxacin and fluconazole (30 μg/ml) served as positive controls. After 24 h incubation, the diameters of the growth inhibition zones were recorded in mm. Data was expressed as mean ± standard deviation of three replicates.

[2] = test system: K. pneumoniae ATCC 13883; experiment: Agar well diffusion, K. pneumoniae; assay type: cell-based; settings: Klebsiella pneumoniae, ATCC13883; 100 μl of test compound 20 mg/ml in DMF; ciprofloxacin and fluconazole 30 μg/ml; 24 h; mean ± SD; read-out: diameters of inhibition zone, K. pneumoniae ATCC 13883
Description: as §1

[3] = test system: P. aeruginosa ATCC 27953; experiment: Agar well diffusion, P. aeruginosa; assay type: cell-based; settings: Pseudomonas aeruginosa, ATCC27953; 100 μl of test compound 20 mg/ml in DMF; ciprofloxacin and fluconazole 30 μg/ml; 24 h; mean ± SD; read-out: diameters of inhibition zone, P. aeruginosa ATCC 27953
Description: as §1

[4] = test system: C. albicans ATCC 10231; experiment: MIC determination, C. albicans; assay type: cell-based, Candida albicans; settings: serial dilutions, triplicate
Description: (§2) Serial dilutions of the test compounds were tested to determine their MIC against the most susceptible organisms. The MIC was expressed as the lowest concentration which inhibited the visible growth of the corresponding microorganism. All assays were performed in triplicate.

[5] = test system: B. subtilis ATCC 6633; experiment: Agar well diffusion, B. subtilis; assay type: cell-based; settings: Bacillus subtilis, ATCC6633; 100 μl of test compound 20 mg/ml in DMF; ciprofloxacin and fluconazole 30 μg/ml; 24 h; mean ± SD; read-out: diameters of inhibition zone, B. subtilis ATCC 6633
Description: as §1

[6] = test system: P. aeruginosa ATCC 27953; experiment: MIC determination, P. aeruginosa; assay type: cell-based, Pseudomonas aeruginosa; settings: serial dilutions, triplicate; for MIC: Pseudomonas aeruginosa, ATCC27953
Description: as §2

[7] = test system: B. subtilis ATCC 6633; experiment: MIC determination, B. subtilis; assay type: cell-based, Bacillus subtilis; settings: serial dilutions, triplicate; for MIC: Bacillus subtilis, ATCC6633
Description: as §2

[8] = test system: K. pneumoniae ATCC 13883; experiment: MIC determination, K. pneumoniae; assay type: cell-based, Klebsiella pneumoniae; settings: serial dilutions, triplicate; for MIC: Klebsiella pneumoniae, ATCC13883
Description: as §2

[9] = Cell viability MTT assay; assay type: cell-based; settings: human, BJ1 cells (normal skin fibroblasts)
Description: Cell viability testing at 5 mg/ml was carried out by colorimetric MTT assay on human normal cell line BJ1 (skin fibroblasts) to investigate the toxicity of the most broad spectrum derivatives 9, 15, 16, 18, 19, 20 and 29 (Table 3). The viability of the cells treated with the aforementioned derivatives was more than 87% at 5 mg/ml concentration. This gives indication that the compounds are tolerated and nontoxic for human cells, as the cytotoxic dose was higher than the therapeutic dose on most of microorganisms. It is worth mentioning that the safe limit of the percent of dead cells is not an absolute value and could be more than 10% as reported in previous studies.
The most broad spectrum compounds were evaluated for their cytotoxic activity against BJ1 cell line using colorimetric MTT [3-(4,5-dimethylthiazol-2-yl)-2,5-diphenyltetrazolium bromide] assay.

[10] = test system: B. cereus ATCC 6629; experiment: Agar well diffusion, B. cereus; assay type: cell-based; settings: Bacillus cereus, ATCC6629; 100 μl of test compound 20 mg/ml in DMF; ciprofloxacin and fluconazole 30 μg/ml; 24 h; mean ± SD; read-out: diameters of inhibition zone, B. cereus ATCC 6629
Description: as §1

[11] = test system: B. cereus ATCC 6629; experiment: MIC determination, B. cereus; assay type: cell-based, Bacillus cereus; settings: serial dilutions, triplicate
Description: as §2

SMILES | melting point [°C] | zone of inhibition at 20000 µg/mL [1] [mm] | zone of inhibition at 20000 µg/mL [2] [mm] | zone of inhibition at 20000 µg/mL [3] [mm] | zone of inhibition at 20000 µg/mL [5] [mm] | further results
COc1cc(C=Nn2c(CN3CCOCC3)nc3ccccc3c2=O)cc(OC)c1OC [Compound 31, 2-(Morpholinomethyl)-3-[(3,4,5-trimethoxybenzylidene)amino]quinazolin-4(3H)-one] | 155 |  |  |  |  | 
OC(Cn1cncn1)(Cn1cncn1)c1ccc(F)cc1F [Fluconazole, reference compound] |  | 20 ± 0.18 |  |  |  | 
CCN(CC)Cc1nc2ccccc2c(=O)n1N=Cc1ccc([N+](=O)[O-])cc1 [Compound 14, 2-[(Diethylamino)methyl]-3-[(4-nitrobenzylidene)amino]quinazolin-4(3H)-one] | 155 | 12 ± 0.37 |  |  |  | 
COc1cc(C=Nn2c(CN3CCCCC3)nc3ccccc3c2=O)cc(OC)c1OC [Compound 25, 2-(Piperidin-1-ylmethyl)-3-[(3,4,5-trimethoxybenzylidene)amino]quinazolin-4(3H)-one] | 112 to 114 |  | 14 ± 0.17 | 21 ± 0.17 |  | 
Cc1ccc(C=Nn2c(CN3CCOCC3)nc3ccccc3c2=O)cc1 [Compound 29, 3-[(4-Methylbenzylidene)amino]-2-(morpholinomethyl)quinazolin-4(3H)-one] | 128 | 13 ± 0.07 | 20 ± 0.15 | 14 ± 0.16 | 14 ± 0.06 | MIC ([4]; Candida albicans, ATCC10231): 5000 µg/mL (≈ 13.8 mM); MIC, C. albicans ATCC 10231 [4]: 5000 ± 290 µg/mL (≈ 13.8 mM); MIC [6]: 1500 µg/mL (≈ 4.14 mM); MIC [7]: 500 µg/mL (≈ 1.38 mM); MIC, B. subtilis ATCC 6633 [7]: 500 ± 60 µg/mL (≈ 1.38 mM); MIC [8]: 2500 µg/mL (≈ 6.9 mM); MIC, K. pneumoniae ATCC 13883 [8]: 2500 ± 500 µg/mL (≈ 6.9 mM); viability at 5 mg/ml [9]: 87.6 ± 3.61%
Cc1ccc(C=Nn2c(CN3CCCC3)nc3ccccc3c2=O)cc1 [Compound 17, 3-[(4-Methylbenzylidene)amino]-2-(pyrrolidin-1-ylmethyl)quinazolin-4(3H)-one] | 156 |  |  | 16 ± 0.22 |  | 
O=c1c2ccccc2nc(CN2CCOCC2)n1N=Cc1ccc(Cl)cc1 [Compound 28, 3-[(4-Chlorobenzylidene)amino]-2-(morpholinomethyl)quinazolin-4(3H)-one] | 140 to 142 |  | 16 ± 0.18 |  | 12 ± 0.2 | 
Cc1ccc(C=Nn2c(CN3CCCCC3)nc3ccccc3c2=O)cc1 [Compound 23, 3-[(4-Methylbenzylidene)amino]-2-(piperidin-1-ylmethyl)quinazolin-4(3H)-one] | 124 | 11 ± 0.13 |  |  |  | 
O=c1c2ccccc2nc(CN2CCCCC2)n1N=Cc1ccc([N+](=O)[O-])cc1 [Compound 26] | 180 to 182 |  | 11 ± 0.07 |  | 12 ± 0.11 | 
O=c1c2ccccc2nc(CN2CCCCC2)n1N=Cc1ccc(Cl)cc1 [Compound 22, 3-[(4-Chlorobenzylidene)amino]-2-(piperidin-1-ylmethyl)quinazolin-4(3H)-one] | 130 |  |  |  | 10 ± 0.07 | 
O=c1c2ccccc2nc(CN2CCOCC2)n1N=Cc1ccc([N+](=O)[O-])cc1 [Compound 32, 2-(Morpholinomethyl)-3-[(4-nitrobenzylidene)amino]quinazolin-4(3H)-one] | 200 |  |  | 18 ± 0.09 | 14 ± 0.27 | 
CCN(CC)Cc1nc2ccccc2c(=O)n1N=Cc1ccccc1 [Compound 9, 3-(Benzylideneamino)-2-[(diethylamino)methyl]quinazolin-4(3H)-one] | 78 |  | 12 ± 0.17 | 21 ± 0.36 | 15 ± 0.25 | zone of inhibition at 20000 µg/mL [10]: 14 ± 0.09 mm; MIC [6]: 2000 µg/mL (≈ 5.98 mM); MIC, P. aeruginosa ATCC 27953 [6]: 2000 ± 290 µg/mL (≈ 5.98 mM); MIC [7]: 2000 µg/mL (≈ 5.98 mM); MIC [8]: 1500 ± 60 µg/mL (≈ 4.49 mM); viability at 5 mg/ml [9]: 91.5 ± 2.21%; MIC ([11]; Bacillus cereus, ATCC6629): 1000 µg/mL (≈ 2.99 mM); MIC, B. cereus ATCC 6629 [11]: 1000 ± 0 µg/mL (≈ 2.99 mM)
CCN(CC)Cc1nc2ccccc2c(=O)n1N=Cc1ccc(C)cc1 [Compound 11, 2-[(Diethylamino)methyl]-3-[(4-methylbenzylidene)amino]quinazolin-4(3H)-one] | 74 |  |  |  | 14 ± 0.16 | 
COc1ccc(C=Nn2c(CN3CCCCC3)nc3ccccc3c2=O)cc1 [Compound 24, 3-[(4-Methoxylbenzylidene)amino]-2-(piperidin-1-ylmethyl)quinazolin-4(3H)-one] | 138 |  | 12 ± 0.14 | 14 ± 0.21 |  | 
O=c1c2ccccc2nc(CN2CCCCC2)n1N=Cc1ccccc1 [Compound 21, 3-(Benzylideneamino)-2-(piperidin-1-ylmethyl)quinazolin-4(3H)-one] | 98 |  | 12 ± 0.15 |  | 17 ± 0.14 | zone of inhibition at 20000 µg/mL [10]: 12 ± 0.16 mm
CCN(CC)Cc1nc2ccccc2c(=O)n1N=Cc1ccc(Cl)cc1 [Compound 10, 3-[(4-Chlorobenzylidene)amino]-2-[(diethylamino)methyl]quinazolin-4(3H)-one] | 124 |  | 15 ± 0.15 |  |  | 
O=c1c2ccccc2nc(CN2CCOCC2)n1N=Cc1ccccc1 [Compound 27, 3-(Benzylideneamino)-2-(morpholinomethyl)quinazolin-4(3H)-one] | 132 | 13 ± 0.09 | 14 ± 0.16 |  | 14 ± 0.15 | 
CCN(CC)Cc1nc2ccccc2c(=O)n1N=Cc1ccc(OC)cc1 [Compound 12, 2-[(Diethylamino)methyl]-3-[(4-methoxybenzylidene)amino]quinazolin-4(3H)-one] | 102 to 104 |  |  | 18 ± 0.27 |  | 
CCN(CC)Cc1nc2ccccc2c(=O)n1N=Cc1cc(OC)c(OC)c(OC)c1 [Compound 13, 2-[(Diethylamino)methyl]-3-[(3,4,5-trimethoxybenzylidene)amino]quinazolin-4(3H)-one] | 116 | 12 ± 0.28 | 12 ± 0.07 | 20 ± 0.18 |  | 
